GI50 and TGI data for 7 compounds are collected here from PubChem BioAssay (NCI).

Some test systems named below: CAKI-1 renal; MOLT-4 leukemia; M14 melanoma; EKVX NSCLC; MDA-MB-231 breast; PC-3 prostate; UACC-62 melanoma; OVCAR-3 ovarian; MALME-3M melanoma; SNB-75 CNS.
Experiment in all cases: DTP human tumour cell line panel, 48 h

SMILES strings stand for the structures.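 Cultured in 96-well plates, cells were exposed to test compound for 48 hours across five concentrations. Abbreviation: GI50, concentration required for 50% inhibition of growth. Definition used: TGI = concentration required for complete inhibition of growth.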 Where only a bound is given, the exact number is not on record here.

`CCCN(CCC)CCCNCc1cc(I)cc(C)c1O`: the GI50 in the test with CAKI-1 renal was 14.6 µM; in the test with MOLT-4 leukemia it was 10.7 µM; in the test with M14 melanoma it was 12.8 µM; with EKVX NSCLC, 15.8 µM; in the test with MDA-MB-231 breast, 14.5 µM; in the test on PC-3 prostate it was 15.1 µM. The GI50 in the test on UACC-62 melanoma is 5.54 µM; with OVCAR-3 ovarian, 14.8 µM; with MALME-3M melanoma, 16.5 µM; with SNB-75 CNS, 14.6 µM. The TGI in the test with CAKI-1 renal amounted to 30.6 µM; in the test on MOLT-4 leukemia it was 23.4 µM; in the test with M14 melanoma it was 25.4 µM; in the test with EKVX NSCLC, 33.7 µM; with MDA-MB-231 breast, 28.5 µM; with PC-3 prostate it was 28.4 µM. Besides, the TGI in the test with UACC-62 melanoma was determined as 18.6 µM; in the test with OVCAR-3 ovarian it was 27.9 µM; in the test with MALME-3M melanoma, 31.5 µM; with SNB-75 CNS it was 29 µM.
Regarding `O=[N+]([O-])c1ccc(Nc2ccccc2-c2ccccc2)c2nonc12`, the GI50 in the test with CAKI-1 renal is 12.3 µM; with MOLT-4 leukemia, 20 µM; with M14 melanoma, 13.3 µM; in the test with EKVX NSCLC it was 15.5 µM; in the test on MDA-MB-231 breast, 14.5 µM; in the test with PC-3 prostate, 13.6 µM. In addition, the GI50 is 4.44 µM in the test on UACC-62 melanoma, 9.15 µM with OVCAR-3 ovarian, 5.2 µM in the test with MALME-3M melanoma and 13.6 µM in the test on SNB-75 CNS. For the same compound, the TGI is 50.2 µM in the test with CAKI-1 renal; 88.2 µM in the test on MOLT-4 leukemia; 30.6 µM with M14 melanoma; 64.1 µM with EKVX NSCLC; 31.2 µM in the test on MDA-MB-231 breast; 66.2 µM in the test with PC-3 prostate. Besides, the TGI with UACC-62 melanoma amounted to 18 µM; in the test on OVCAR-3 ovarian it was 22.8 µM; in the test on MALME-3M melanoma, 29.1 µM; with SNB-75 CNS, 36.6 µM.
On to `COc1cccc(C2CC(c3cc(OC)c(OC)c(OC)c3)=NN2)c1` (stereo not given), for which the GI50 with CAKI-1 renal was 14.7 µM; in the test on MOLT-4 leukemia, 6.17 µM; with M14 melanoma, 48.8 µM; with EKVX NSCLC it was 14.5 µM; with MDA-MB-231 breast it was 26.2 µM; with PC-3 prostate, 7.26 µM. In addition, the GI50 with UACC-62 melanoma is 20.6 µM; in the test with OVCAR-3 ovarian it was 20.2 µM; in the test with MALME-3M melanoma it was 23.4 µM; with SNB-75 CNS, 15.6 µM. For the same compound, the TGI in the test on CAKI-1 renal was 50.5 µM; in the test with MOLT-4 leukemia, 41.4 µM; in the test with M14 melanoma, greater than 100 µM; in the test with EKVX NSCLC it was 46.1 µM; in the test with MDA-MB-231 breast, greater than 100 µM; in the test on PC-3 prostate it was 45.9 µM. Besides, the TGI was greater than 100 µM with UACC-62 melanoma, 76.3 µM with OVCAR-3 ovarian, greater than 100 µM in the test on MALME-3M melanoma and greater than 100 µM in the test on SNB-75 CNS.
For `Cc1ccc(NCCCN2CCN(CCCNc3ccc(C)c4sc5ccccc5c(=O)c34)CC2)c2c(=O)c3ccccc3sc12`, the TGI in the test with CAKI-1 renal, with MOLT-4 leukemia, in the test on M14 melanoma, with EKVX NSCLC, with MDA-MB-231 breast and with PC-3 prostate was greater than 100 µM each time. In addition, the TGI with UACC-62 melanoma was greater than 100 µM; in the test with OVCAR-3 ovarian, greater than 100 µM; with MALME-3M melanoma, greater than 100 µM; with SNB-75 CNS, 57.1 µM.
Take `C=CC(=O)Nc1ccc(Nc2nccc(-c3ccc(N4CCCC4)c(C#N)c3)n2)cc1`: the GI50 with CAKI-1 renal was 4.6 µM; in the test on MOLT-4 leukemia it was 7.43 µM; with M14 melanoma, 22.8 µM; in the test on EKVX NSCLC, greater than 25 µM; with MDA-MB-231 breast, greater than 25 µM; with PC-3 prostate, 20.9 µM. Also, the GI50 with UACC-62 melanoma was greater than 25 µM; with OVCAR-3 ovarian, greater than 25 µM; in the test with MALME-3M melanoma, 5.06 µM; with SNB-75 CNS, 3.37 µM. Moreover, the TGI in the test with CAKI-1 renal, with MOLT-4 leukemia, in the test with M14 melanoma, with EKVX NSCLC, with MDA-MB-231 breast and in the test on PC-3 prostate was greater than 25 µM in each case. Also, the TGI with UACC-62 melanoma is greater than 25 µM; in the test on OVCAR-3 ovarian, greater than 25 µM; in the test on MALME-3M melanoma, 20 µM; with SNB-75 CNS it was greater than 25 µM.
Consider `CC/C(Cc1ccccc1)=C(\c1ccc(OCCN2CCCCCC2)cc1)c1ccc(OC(=O)NCc2ccccc2)cc1`, for which the GI50 in the test on CAKI-1 renal is 4.52 µM; in the test on MOLT-4 leukemia it was 1.15 µM; with M14 melanoma, 1.06 µM; with EKVX NSCLC it was 6.29 µM; with MDA-MB-231 breast, 2.59 µM; in the test on PC-3 prostate it was 2.3 µM. Besides, the GI50 is 6.38 µM in the test with UACC-62 melanoma, 1.86 µM in the test on OVCAR-3 ovarian, 0.951 µM with MALME-3M melanoma and 6.09 µM with SNB-75 CNS. Also, the TGI in the test on CAKI-1 renal stood at 10.5 µM; with MOLT-4 leukemia it was 3.78 µM; in the test with M14 melanoma, 2.55 µM; with EKVX NSCLC, 14.1 µM; with MDA-MB-231 breast, 9.02 µM; with PC-3 prostate it was 8.36 µM. Also, the TGI in the test on UACC-62 melanoma stood at 13 µM; in the test with OVCAR-3 ovarian it was 7.13 µM; in the test with MALME-3M melanoma, 1.94 µM; with SNB-75 CNS it was 13.2 µM.
In the case of `CO[C@H](C(=O)[C@@H](O)[C@@H](C)O)[C@@H]1Cc2cc3cc(O[C@H]4C[C@@H](O[C@H]5C[C@@H](O)[C@H](O)C(C)O5)[C@H](O)C(C)O4)c(C)c(O)c3c(O)c2C(=O)[C@H]1O[C@H]1C[C@@H](O[C@H]2C[C@@H](O[C@H]3C[C@@H](OC)[C@H](O)C(C)O3)[C@@H](O)C(C)O2)C(O)(O)C(C)O1` (stereo not given in full), the GI50 was 2.89 µM with CAKI-1 renal; 0.57 µM in the test with MOLT-4 leukemia; 0.275 µM in the test with M14 melanoma; 0.318 µM in the test on EKVX NSCLC; 0.794 µM in the test with MDA-MB-231 breast; 0.396 µM in the test on PC-3 prostate. The GI50 in the test with UACC-62 melanoma was 0.00601 µM; in the test on OVCAR-3 ovarian it was 0.24 µM; in the test with MALME-3M melanoma, 0.0532 µM; in the test on SNB-75 CNS it was 0.148 µM. The TGI in the test on CAKI-1 renal was greater than 17.3 µM; in the test on MOLT-4 leukemia it was greater than 25 µM; with M14 melanoma it was 6.18 µM; in the test on EKVX NSCLC, greater than 25 µM; in the test with MDA-MB-231 breast, 24.5 µM; in the test with PC-3 prostate, greater than 25 µM. In addition, the TGI in the test on UACC-62 melanoma was 0.0945 µM; in the test with OVCAR-3 ovarian it was 7.23 µM; in the test on MALME-3M melanoma, 2.03 µM; with SNB-75 CNS, 3.53 µM.
